Test results taken from ChEMBL document CHEMBL6071168, “Discovery of novel fructose-1,6-bisphosphatase inhibitors bearing benzimidazole scaffold using a dual-ligand molecular docking model” (Eur J Med Chem, 2024).
Each block holds one compound with its values, some of them ahead of it. Activity calls are given as the source filed them. The calls are words filed in the database; no cut-off is given here.

Key:
[1] = organism: Homo sapiens; assay: Inhibition of Fructose-1,6-bisphosphatase (unknown origin) preincubated for 10 min followed by addition of NADP+, PGI,G6PDH at 10 uM measured after 40 min by absorption based analysis relative to control; details: time 50.0 min
[2] = Inhibition of Fructose-1,6-bisphosphatase (unknown origin) preincubated for 10 min followed by addition of NADP+, PGI,G6PDH and measured after 40 min by absorption based analysis; set-up: species or system Homo sapiens
[3] = Inhibition of Fructose-1,6-bisphosphatase (unknown origin); set-up: species or system Homo sapiens
[4] = tested on: Mus musculus; assay: Anti-diabetic activity against 16 hrs fasted ICR mouse assessed as reduced blood glucose level at 150 mg/kg, po measured after 90 min by oral pyruvate tolerance test; format: functional, organism-based
[5] = Clearance in ICR mouse at 100 mg/kg, po by HPLC-MS/MS analysis; format: ADME, organism-based; details: in vivo
[6] = MRT (0 to t) in ICR mouse at 5 mg/kg, iv by HPLC-MS/MS analysis; format: ADME, organism-based; details: in vivo
[7] = tested on: Mus musculus; assay: Anti-diabetic activity against 16 hrs fasted ICR mouse assessed as reduced blood glucose level at 150 mg/kg, po measured after 30 to 90 min by oral pyruvate tolerance test; format: functional, organism-based; details: time 30-90 min
[8] = target: Cytochrome P450 2C9 (Homo sapiens, UniProt P11712); assay: Inhibition of CYP2C9 (unknown origin) incubated for 30 min in presence of NADPH by LC-MS/MS analysis; format: ADME
Chain of Cytochrome P450 2C9 (P11712 whole entry): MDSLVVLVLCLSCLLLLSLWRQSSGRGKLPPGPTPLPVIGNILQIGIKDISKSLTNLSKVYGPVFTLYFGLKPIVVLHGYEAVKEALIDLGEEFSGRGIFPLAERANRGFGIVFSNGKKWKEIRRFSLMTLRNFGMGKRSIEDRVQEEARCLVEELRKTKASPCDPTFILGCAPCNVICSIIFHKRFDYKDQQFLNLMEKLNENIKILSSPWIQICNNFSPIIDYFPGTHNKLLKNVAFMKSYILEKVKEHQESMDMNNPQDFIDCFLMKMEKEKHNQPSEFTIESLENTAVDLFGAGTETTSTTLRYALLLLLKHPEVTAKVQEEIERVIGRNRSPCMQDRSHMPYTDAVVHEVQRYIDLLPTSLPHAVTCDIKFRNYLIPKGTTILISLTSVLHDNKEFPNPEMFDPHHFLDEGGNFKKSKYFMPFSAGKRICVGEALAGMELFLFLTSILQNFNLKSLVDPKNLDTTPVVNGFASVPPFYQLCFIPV

[9] = target: Cytochrome P450 3A4 (Homo sapiens, UniProt P08684); assay: Inhibition of CYP3A4 (unknown origin) incubated for 30 min in presence of NADPH by LC-MS/MS analysis; format: ADME
Chain of Cytochrome P450 3A4 (P08684 whole entry): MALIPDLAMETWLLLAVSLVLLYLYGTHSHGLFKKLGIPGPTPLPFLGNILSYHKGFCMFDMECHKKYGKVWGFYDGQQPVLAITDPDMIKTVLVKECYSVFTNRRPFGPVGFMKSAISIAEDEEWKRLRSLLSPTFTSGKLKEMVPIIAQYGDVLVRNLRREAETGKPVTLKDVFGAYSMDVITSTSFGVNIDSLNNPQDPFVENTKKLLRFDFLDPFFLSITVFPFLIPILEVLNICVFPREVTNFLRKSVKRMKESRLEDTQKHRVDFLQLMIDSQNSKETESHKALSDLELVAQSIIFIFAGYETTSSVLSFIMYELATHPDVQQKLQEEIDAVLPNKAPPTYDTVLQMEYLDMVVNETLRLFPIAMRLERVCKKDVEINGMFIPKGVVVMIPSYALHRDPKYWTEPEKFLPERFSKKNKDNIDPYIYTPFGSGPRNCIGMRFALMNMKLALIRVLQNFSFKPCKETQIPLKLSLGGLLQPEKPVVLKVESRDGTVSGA

[10] = Half life in ICR mouse at 5 mg/kg, iv by HPLC-MS/MS analysis; format: ADME, organism-based; details: in vivo
[11] = target: Cytochrome P450 3A5 (Homo sapiens, UniProt P20815); assay: Inhibition of CYP3A5 (unknown origin) incubated for 30 min in presence of NADPH by LC-MS/MS analysis; format: ADME
Chain of Cytochrome P450 3A5 (P20815 whole entry): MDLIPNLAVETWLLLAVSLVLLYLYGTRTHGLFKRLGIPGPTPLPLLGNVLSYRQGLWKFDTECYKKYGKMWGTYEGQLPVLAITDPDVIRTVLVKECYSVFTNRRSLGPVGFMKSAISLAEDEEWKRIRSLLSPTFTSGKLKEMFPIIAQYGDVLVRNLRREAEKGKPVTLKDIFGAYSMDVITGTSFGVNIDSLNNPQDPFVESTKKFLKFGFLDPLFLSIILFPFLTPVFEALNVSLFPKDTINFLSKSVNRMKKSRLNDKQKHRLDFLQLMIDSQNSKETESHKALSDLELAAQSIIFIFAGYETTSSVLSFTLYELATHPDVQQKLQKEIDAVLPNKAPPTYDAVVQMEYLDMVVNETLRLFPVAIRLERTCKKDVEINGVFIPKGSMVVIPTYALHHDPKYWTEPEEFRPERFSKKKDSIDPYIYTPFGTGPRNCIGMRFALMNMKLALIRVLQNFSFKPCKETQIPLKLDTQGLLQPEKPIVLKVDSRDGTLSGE

[12] = Apparent volume of distribution in ICR mouse at 5 mg/kg, iv by HPLC-MS/MS analysis; format: ADME, organism-based; details: in vivo, read-out: Vz
[13] = MRT (0 to t) in ICR mouse at 100 mg/kg, po by HPLC-MS/MS analysis; format: ADME, organism-based; details: in vivo
[14] = target: T1, Cytochrome P450 1A2 (Homo sapiens, UniProt P05177); assay: Inhibition of CYP1A2 (unknown origin) incubated for 30 min in presence of NADPH by LC-MS/MS analysis; format: ADME
T1 sequence (P05177 whole entry): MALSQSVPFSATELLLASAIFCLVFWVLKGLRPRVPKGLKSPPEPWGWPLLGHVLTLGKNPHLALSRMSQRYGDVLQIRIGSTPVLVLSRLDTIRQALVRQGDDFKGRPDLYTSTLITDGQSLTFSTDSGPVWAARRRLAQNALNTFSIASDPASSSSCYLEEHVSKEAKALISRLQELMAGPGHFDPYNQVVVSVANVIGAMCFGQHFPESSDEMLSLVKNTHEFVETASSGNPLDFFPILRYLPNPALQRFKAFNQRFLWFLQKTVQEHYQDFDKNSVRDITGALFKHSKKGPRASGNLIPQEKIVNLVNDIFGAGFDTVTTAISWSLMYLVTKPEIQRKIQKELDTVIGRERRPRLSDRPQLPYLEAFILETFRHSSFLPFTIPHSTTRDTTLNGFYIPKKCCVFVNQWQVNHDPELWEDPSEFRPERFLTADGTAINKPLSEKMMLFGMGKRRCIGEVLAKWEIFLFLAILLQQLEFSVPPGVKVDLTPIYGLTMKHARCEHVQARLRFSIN

[15] = AUC (0 to infinity) in ICR mouse at 5 mg/kg, iv by HPLC-MS/MS analysis; format: ADME, organism-based; details: in vivo
[16] = Clearance in ICR mouse at 5 mg/kg, iv by HPLC-MS/MS analysis; format: ADME, organism-based; details: in vivo
[17] = Cmax in ICR mouse at 100 mg/kg, po by HPLC-MS/MS analysis; format: ADME, organism-based; details: in vivo
[18] = Oral Bioavailability in ICR mouse at 100 mg/kg by HPLC-MS/MS analysis; format: ADME, organism-based; details: in vivo
[19] = AUC (0 to t) in ICR mouse at 100 mg/kg, po by HPLC-MS/MS analysis; format: ADME, organism-based; details: in vivo
[20] = MRT (0 to infinity) in ICR mouse at 5 mg/kg, iv by HPLC-MS/MS analysis; format: ADME, organism-based; details: in vivo
[21] = AUC (0 to t) in ICR mouse at 5 mg/kg, iv by HPLC-MS/MS analysis; format: ADME, organism-based; details: in vivo
[22] = Apparent volume of distribution in ICR mouse at 100 mg/kg, po by HPLC-MS/MS analysis; format: ADME, organism-based; details: in vivo
[23] = MRT (0 to infinity) in ICR mouse at 100 mg/kg, po by HPLC-MS/MS analysis; format: ADME, organism-based; details: in vivo
[24] = target: Cytochrome P450 2C19 (Homo sapiens, UniProt P33261); assay: Inhibition of CYP2C19 (unknown origin) incubated for 30 min in presence of NADPH by LC-MS/MS analysis; format: ADME
Chain of Cytochrome P450 2C19 (P33261 whole entry): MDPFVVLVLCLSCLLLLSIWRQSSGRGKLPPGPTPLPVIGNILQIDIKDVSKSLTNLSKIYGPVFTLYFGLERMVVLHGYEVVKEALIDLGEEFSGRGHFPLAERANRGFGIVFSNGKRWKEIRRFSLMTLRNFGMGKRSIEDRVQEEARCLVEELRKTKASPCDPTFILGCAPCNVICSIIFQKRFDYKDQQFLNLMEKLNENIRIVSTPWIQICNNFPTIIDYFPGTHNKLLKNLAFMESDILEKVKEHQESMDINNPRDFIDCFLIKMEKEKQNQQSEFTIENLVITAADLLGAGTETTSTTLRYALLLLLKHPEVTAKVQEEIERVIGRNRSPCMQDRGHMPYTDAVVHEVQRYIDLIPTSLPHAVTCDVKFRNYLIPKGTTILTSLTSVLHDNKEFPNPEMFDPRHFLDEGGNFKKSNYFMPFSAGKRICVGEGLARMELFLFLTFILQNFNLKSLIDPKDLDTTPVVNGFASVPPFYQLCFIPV

[25] = Cmax in ICR mouse at 5 mg/kg, iv by HPLC-MS/MS analysis; format: ADME, organism-based; details: in vivo
[26] = Tmax in ICR mouse at 5 mg/kg, iv by HPLC-MS/MS analysis; format: ADME, organism-based; details: in vivo
[27] = target: Cytochrome P450 2D6 (Homo sapiens, UniProt P10635); assay: Inhibition of CYP2D6 (unknown origin) incubated for 30 min in presence of NADPH by LC-MS/MS analysis; format: ADME
Chain of Cytochrome P450 2D6 (P10635 whole entry): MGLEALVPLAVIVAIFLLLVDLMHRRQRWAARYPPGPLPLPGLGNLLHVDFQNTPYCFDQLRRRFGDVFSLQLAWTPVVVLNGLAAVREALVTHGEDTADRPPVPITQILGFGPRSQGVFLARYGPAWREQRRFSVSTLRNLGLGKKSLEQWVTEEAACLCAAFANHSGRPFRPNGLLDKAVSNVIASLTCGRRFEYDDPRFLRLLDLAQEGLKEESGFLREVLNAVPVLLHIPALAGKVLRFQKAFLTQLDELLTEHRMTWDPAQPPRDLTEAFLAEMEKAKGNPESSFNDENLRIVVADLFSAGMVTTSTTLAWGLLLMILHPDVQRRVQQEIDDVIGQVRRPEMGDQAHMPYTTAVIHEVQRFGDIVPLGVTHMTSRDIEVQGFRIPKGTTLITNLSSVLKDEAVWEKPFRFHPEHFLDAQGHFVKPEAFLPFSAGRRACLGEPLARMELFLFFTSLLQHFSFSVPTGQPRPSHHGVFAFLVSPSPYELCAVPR

[28] = AUC (0 to infinity) in ICR mouse at 100 mg/kg, po by HPLC-MS/MS analysis; format: ADME, organism-based; details: in vivo
[29] = Tmax in ICR mouse at 100 mg/kg, po by HPLC-MS/MS analysis; format: ADME, organism-based; details: in vivo
[30] = Half life in ICR mouse at 100 mg/kg, po by HPLC-MS/MS analysis; format: ADME, organism-based; details: in vivo

SMILES: O=S(=O)(Nc1ccccc1-c1nc2ccccc2n1-c1ccc(Cl)cc1)c1ccc(Cl)cc1
- inhibition [1]: 28.9%

SMILES: CC(=O)Nc1ccc(-n2c(-c3cccc(NS(=O)(=O)c4ccc(Cl)cc4)c3)nc3ccccc32)cc1
- inhibition [1]: 21.1%

SMILES: CC(C)n1c(-c2cccc(C(=O)NS(=O)(=O)c3ccc(Cl)cc3)c2)nc2ccccc21
- inhibition [1]: 0%

SMILES: CC(=O)Nc1ccc(-n2c(-c3ccccc3NS(=O)(=O)c3ccc(Cl)cc3)nc3ccccc32)cc1
- inhibition [1]: 25%

SMILES: COc1ccc(S(=O)(=O)Nc2cccc(-c3nc4ccccc4[nH]3)c2)cc1
- inhibition [1]: 0%

SMILES: COc1ccc(S(=O)(=O)Nc2cccc(-c3nc4ccccc4n3-c3ccc(NC(C)=O)cc3)c2)cc1
- inhibition [1]: 36.8%

SMILES: O=S(=O)(Nc1cccc(-c2nc3ccccc3[nH]2)c1)c1ccc(Cl)cc1
- inhibition [1]: 0%

SMILES: COc1ccc(S(=O)(=O)Nc2cccc(-c3nc4ccccc4n3-c3ccc(Cl)cc3)c2)cc1
- inhibition [1]: 52.6%
- IC50 [2]: 5350 nM

SMILES: Nc1ncnc2c1ncn2[C@@H]1O[C@H](COP(=O)(O)O)[C@@H](O)[C@H]1O [ADENOSINE PHOSPHATE]
- inhibition [1]: 81.3%
- IC50 [2]: 3290 nM

SMILES: S=C(SSC(=S)n1cccc1)n1cccc1
- IC50 [3]: 130 nM

SMILES: COc1ccccc1CNC(=O)N1C(=O)c2ccccc2S1(=O)=O
- IC50 [3]: 1700 nM

SMILES: COc1ccc(S(=O)(=O)Nc2cccc(-c3nc4ccccc4n3C)c2)cc1
- inhibition [1]: 5.7%

SMILES: O=C(NS(=O)(=O)c1ccc(Cl)cc1)c1cc(Cl)cc(-c2nc3ccccc3[nH]2)c1
- Activity [4]: Active
- inhibition [1]: 88.3%
- IC50 [2]: 1400 nM

SMILES: COc1ccc(S(=O)(=O)NC(=O)c2cccc(-c3nc4ccccc4[nH]3)c2)cc1
- inhibition [1]: 20.8%

SMILES: CC(C)=CCc1c(O)cc(O)c2c(=O)c(O)c(-c3ccc(O)c(O)c3)oc12
- IC50 [3]: 3620 nM

SMILES: Cn1c(-c2cccc(C(=O)NS(=O)(=O)c3ccc(Cl)cc3)c2)nc2ccccc21
- inhibition [1]: 4%

SMILES: O=S(=O)(Nc1cc(Cl)cc(-c2nc3ccccc3[nH]2)c1)c1ccc(Cl)cc1
- inhibition [1]: 5.4%

SMILES: COc1ccc(S(=O)(=O)NC(=O)c2cc(Cl)cc(-c3nc4ccccc4[nH]3)c2)cc1
- CL/F [5]: 87 mL/min/kg
- MRT last [6]: 1.86 h
- Activity [7]: Active
- IC50 [8]: 1310 nM
- IC50 [9]: 20 µM
- half-life [10]: 107 min
- IC50 [11]: 20 µM
- Vd [12]: 0.813 L/kg
- MRT last [13]: 3 h
- IC50 [14]: 47.2 µM
- inhibition [1]: 81.8%
- IC50 [2]: 2080 nM
- AUC(0-inf) [15]: 15900 ng·h/mL
- clearance [16]: 5.27 mL/min/kg
- Cmax [17]: 7160 ng/mL
- bioavailability [18]: 6.15%
- AUC(0-t) [19]: 19500 ng·h/mL
- MRT inf [20]: 1.86 h
- AUC(0-t) [21]: 15900 ng·h/mL
- Vz [22]: 9799 mL/kg
- MRT inf [23]: 3 h
- IC50 [24]: > 50 µM
- Cmax [25]: 33500 ng/mL
- Tmax [26]: 1.98 min
- IC50 [27]: 36.8 µM
- AUC(0-inf) [28]: 19500 ng·h/mL
- Tmax [29]: 15 min
- half-life [30]: 77.4 min

SMILES: O=S(=O)(Nc1cccc(-c2nc3ccccc3n2-c2ccc(Cl)cc2)c1)c1ccc(Cl)cc1
- inhibition [1]: 63.5%
- IC50 [2]: 8040 nM

SMILES: COc1ccc(S(=O)(=O)Nc2ccccc2-c2nc3ccccc3n2C2CCCCC2)cc1
- inhibition [1]: 17.3%

SMILES: COc1ccc(S(=O)(=O)Nc2cc(Cl)cc(-c3nc4ccccc4[nH]3)c2)cc1
- inhibition [1]: 18.2%

More lines, main results first:

- inhibition [1]: 5.6%
SMILES: COc1ccc(S(=O)(=O)Nc2ccccc2-c2nc3ccccc3n2Cc2ccc(Cl)cc2)cc1

- inhibition [1]: 10.2%
SMILES: O=S(=O)(Nc1ccccc1-c1nc2ccccc2n1Cc1ccc(Cl)cc1)c1ccc(Cl)cc1

- inhibition [1]: 0%
SMILES: O=C(NS(=O)(=O)c1ccc(Cl)cc1)c1cccc(-c2nc3ccccc3[nH]2)c1

- inhibition [1]: 36.8%
SMILES: COc1ccc(S(=O)(=O)Nc2ccccc2-c2nc3ccccc3n2-c2ccc(NC(C)=O)cc2)cc1

- inhibition [1]: 0%
SMILES: COc1ccc(S(=O)(=O)NC(=O)c2cccc(-c3nc4ccccc4n3C(C)C)c2)cc1

- inhibition [1]: 64.3%
SMILES: O=C(NS(=O)(=O)c1ccc(F)cc1)c1ccccc1N1CCN(Cc2nc3ccccc3n2C2CCCCC2)CC1

- inhibition [1]: 24.8%
SMILES: O=S(=O)(Nc1cccc(-c2nc3ccccc3n2C2CCCCC2)c1)c1ccc(Cl)cc1

- inhibition [1]: 16.2%
SMILES: O=S(=O)(Nc1cccc(-c2nc3ccccc3n2Cc2ccc(Cl)cc2)c1)c1ccc(Cl)cc1

- inhibition [1]: 28.9%
SMILES: COc1ccc(S(=O)(=O)Nc2ccccc2-c2nc3ccccc3n2-c2ccc(Cl)cc2)cc1

- inhibition [1]: 96.3%
- IC50 [2]: 2160 nM
SMILES: O=C(NS(=O)(=O)c1ccc(F)cc1)c1cc(Cl)cc(-c2nc3ccccc3[nH]2)c1
- Activity [4]: Active

- inhibition [1]: 0%
SMILES: Cn1c(-c2cccc(NS(=O)(=O)c3ccc(Cl)cc3)c2)nc2ccccc21

- inhibition [1]: 39.8%
SMILES: O=S(=O)(Nc1ccccc1-c1nc2ccccc2n1C1CCCCC1)c1ccc(Cl)cc1

- inhibition [1]: 5.7%
SMILES: COc1ccc(S(=O)(=O)NC(=O)c2cccc(-c3nc4ccccc4n3C)c2)cc1

- inhibition [1]: 7.1%
SMILES: COc1ccc(S(=O)(=O)Nc2cccc(-c3nc4ccccc4n3Cc3ccc(Cl)cc3)c2)cc1

- inhibition [1]: 7.1%
SMILES: COc1ccc(S(=O)(=O)Nc2cccc(-c3nc4ccccc4n3C(C)C)c2)cc1

- inhibition [1]: 47.4%
SMILES: COc1ccc(S(=O)(=O)Nc2cccc(-c3nc4ccccc4n3C3CCCCC3)c2)cc1

- IC50 [14]: 0.148 µM
SMILES: O=c1cc(-c2ccccc2)oc2ccc3ccccc3c12 [BETA-NAPHTHOFLAVONE]

- inhibition [1]: 7.1%
SMILES: CC(C)n1c(-c2cccc(NS(=O)(=O)c3ccc(Cl)cc3)c2)nc2ccccc21
